# From patent US20220153732A1, “PROTEIN SECRETION INHIBITORS” (KEZAR LIFE SCIENCES, priority 2019, published 2022)
# Read-outs that look alike come from different tables or passages of the source.
# Columns and labels:
# Format in all cases: cell-based
# [1] = test system: HER3-ss+4aa/Gaussia Luciferase; test: Dox-Induced Her3-ss-Gluc Assay; details: 24 hr doxycycline induction, 293FRT/TO cells, Gaussia luciferase signal; read-out: 24 hr Dox Inducible Her3(ss + 4)Gluc 293FRT/TO: Mean IC50
# Procedure, shortened: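 Stable T-REx cell line carrying a doxycycline-regulated HER3-ss+4aa/Gaussia luciferase insert, plated the day before assay. Compound dilutions in DMSO/media with doxycycline added, then incubated at 37° C., 5% CO2. Stereoisomer mixtures tested where stereochemistry is not drawn.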
# [2] = test system: IL-2-FL/Gaussia Luciferase; test: Dox Induced IL2-FL-Gluc Assay; details: 24 hr doxycycline induction, 293FRT/TO cells, Gaussia luciferase signal; read-out: 24 hr Dox Inducible IL2FLGIuc 293FRT/TO: Mean IC50
# Procedure, shortened: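 Stable T-REx cell line expressing doxycycline-inducible IL-2-FL/Gaussia luciferase cDNA, plated the day before assay. Compound dilutions in DMSO/media containing doxycycline added and incubated at 37° C., 5% CO2. Unspecified stereochemistry means data refer to a stereoisomer mixture.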
# [3] = test system: human multiple myeloma cell line U266B1; test: U266 Cell Viability Assay; details: read-out: 48 hr U266 Viability Celltiter-Glo: Mean EC50
# Procedure, shortened: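 U266B1 myeloma cells treated with compound dilutions in DMSO/media for 48 h at 37 °C, 5% CO2. Viability read by CellTiter-Glo luminescence. Stereochemically undefined structures were tested as stereoisomer mixtures.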
# [4] = test system: human multiple myeloma cell line NCI-H929; test: H929 Cell Viability Assay; details: read-out: 48 hr H929 Viability Celltiter-Glo: Mean EC50
# Method: Plates were incubated at 37° C., 5% CO2 for 48 hours. After 48 hours, Celltiter-Glo® (Promega) was added to each well and luciferase signal was quantified using Tecan Infinite M1000 Pro for cell viability determination.
# For chemical structures that include one or more stereoisomers, but are illustrated without indicating stereochemistry, the assay data refers to a mixture of stereoisomers.
# [5] = test system: PD1-ss+10aa/Gaussia Luciferase; test: Dox-Induced PD1-ss-Gluc Assay; details: 24 hr doxycycline induction, 293FRT/TO cells, Gaussia luciferase signal; read-out: 24 hr Dox Inducible PD1ssGluc 293FRT/TO: Mean IC50
# Procedure, shortened: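 Stable cell line carrying PD1-ss+10aa/Gaussia luciferase cDNA under T-REx (doxycycline-inducible) control, plated the day before assay. Compound dilutions in DMSO/media containing doxycycline added and incubated at 37° C, 5% CO2. Undefined stereocentres: data refer to stereoisomer mixtures.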
# [6] = test system: TNFα-FL/Gaussia Luciferase; test: Dox Induced TNFα-FL-Gluc Assay; details: 24 hr doxycycline induction, 293FRT/TO cells, Gaussia luciferase signal; read-out: 24 hr Dox Inducible TNFaFLGluc 293FRT/TO: Mean IC50
# Procedure, shortened: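 A stable T-REx cell line carrying doxycycline-inducible TNFα-FL/Gaussia luciferase was plated the day before assay. Compound dilutions in DMSO/media containing doxycycline were then added and incubated at 37° C, 5% CO2.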
# [7] = U-266, 48 hr, U266B1 cells, Celltiter-Glo
# [8] = 48 hr, NCI-H929 cells, Celltiter-Glo
SMILES,IC50 [1] [µM],IC50 [2] [µM],"EC50 [3, 7] [µM]","EC50 [4, 8] [µM]",IC50 [5] [µM],IC50 [6] [µM],"EC50 ([3]; U-266, 48 h) [µM]","EC50 ([4]; NCI-H929, 48 h) [µM]"
"O=C(Nc1nc(/C=C/c2ccc(OC3CC3)cc2)cs1)c1cccn1Cc1ccncc1 [Compound A248, N-(4-(4-cyclopropoxystyryl)thiazol-2-yl)-1-(pyridin-4-ylmethyl)-1H-pyrrole-2-carboxamide]",0.152,0.211,> 25,> 25,0.038,1.51,,
"O=C(Nc1nc(C2=CCC(c3ccccc3)CC2)cs1)c1cccn1Cc1ccncc1 (stereo not drawn) [Compound A249, 1-(pyridin-4-ylmethyl)-N-(4-(1,2,3,6-tetrahydro-[1,1-biphenyl]-4-yl)thiazol-2-yl)-1H-pyrrole-2-carboxamide]",0.545,0.881,14.4,19.9,0.163,1.41,,
"CCc1cnccc1Cn1cccc1C(=O)Nc1nc(C(C)(C)OC(C)C)cs1 [Compound A250, 1-((3-ethylpyridin-4-yl)methyl)-N-(4-(2-isopropoxypropan-2-yl)thiazol-2-yl)-1H-pyrrole-2-carboxamide]",15.7,7.4,> 25,> 25,5.28,> 25,,
C/C(=C\c1csc(NC(=O)c2cccn2Cc2ccncc2)n1)c1ccccc1 [Compound A252],1.13,1.28,> 25,14,0.53,6.93,,
"CO[C@H]1CC[C@H](/C=C/c2csc(NC(=O)c3cccn3Cc3ccncc3)n2)CC1 [Compound A253, N-(4-(2-((1r,4r)-4-methoxycyclohexyl)vinyl)thiazol-2-yl)-1-(pyridin-4-ylmethyl)-1H-pyrrole-2-carboxamide]",0.672,1.58,15.6,10.8,0.22,4.2,,
"CO[C@H]1CC[C@@H](/C=C/c2csc(NC(=O)c3cccn3Cc3ccncc3)n2)CC1 [Compound A254, N-(4-(2-((1s,4s)-4-methoxycyclohexyl)vinyl)thiazol-2-yl)-1-(pyridin-4-ylmethyl)-1H-pyrrole-2-carboxamide]",0.189,0.554,4.13,4.1,0.074,1.53,,
O=C(Nc1nc(C2=CCN(c3ccccc3)CC2)cs1)c1cccn1Cc1ccncc1 [Compound A258],6.4,14.5,> 25,23.8,0.701,> 25,,
O=C(Nc1nc(C2=CCN(Cc3ccccc3)CC2)cs1)c1cccn1Cc1ccncc1 [Compound A259],7.11,10.5,,,0.516,> 25,> 25,> 25
CC(C)(COc1ccccn1)c1csc(NC(=O)c2cccn2Cc2ccncc2)n1 [Compound A260],0.974,0.95,> 25,10.9,0.478,4.61,,
CC(C)(CCc1ccccn1)c1csc(NC(=O)c2cccn2Cc2ccncc2)n1 [Compound A262],3.14,3.12,> 25,> 25,1.46,24.2,,
O=C(Nc1nc(N2CCCC(c3ccccc3)C2)cs1)c1cccn1Cc1ccncc1 (stereo not drawn) [Compound A265],> 25,7.3,> 25,> 25,9.06,> 25,,
O=C(Nc1nc(N2CCc3ccccc3C2)cs1)c1cccn1Cc1ccncc1 [Compound A267],> 25,> 25,> 25,> 25,15.4,> 25,,

# Second part, led by results:
IC50 [1] [µM],IC50 [2] [µM],"EC50 [3, 7] [µM]","EC50 [4, 8] [µM]",IC50 [5] [µM],IC50 [6] [µM],SMILES,"EC50 ([3]; U-266, 48 h) [µM]","EC50 ([4]; NCI-H929, 48 h) [µM]"
0.199,0.136,> 25,14.8,0.178,2.36,"CC(C)OC(C)(C)c1csc(NC(=O)c2cccn2CCCc2ccncc2F)n1 [Compound A243, 1-(3-(3-fluoropyridin-4-yl)propyl)-N-(4-(2-isopropoxypropan-2-yl)thiazol-2-yl)-1H-pyrrole-2-carboxamide]",,
0.225,0.648,17.4,17.7,0.081,1.43,"O=C(Nc1nc(/C=C/C2=CCCCC2)cs1)c1cccn1Cc1ccncc1 [Compound A244, N-(4-(2-(cyclohex-1-en-1-yl)vinyl)thiazol-2-yl)-1-(pyridin-4-ylmethyl)-1H-pyrrole-2-carboxamide]",,
> 25,14.1,17.5,9.06,3.18,22.2,CC(=O)N(C)c1ccc(/C=C/c2csc(NC(=O)c3cccn3Cc3ccncc3)n2)cc1 [Compound A245],,
21.9,> 25,10.3,14,0.526,> 25,CN(C)C(=O)c1ccc(/C=C/c2csc(NC(=O)c3cccn3Cc3ccncc3)n2)cc1 [Compound A246],,
0.377,0.788,> 25,> 25,0.146,2.32,"C/C(=C\c1ccccc1)c1csc(NC(=O)c2cccn2Cc2ccncc2)n1 [Compound A247, N-(4-(1-phenylprop-1-en-2-yl)thiazol-2-yl)-1-(pyridin-4-ylmethyl)-1H-pyrrole-2-carboxamide]",,
0.344,0.549,> 25,11.7,0.125,1.42,CC(/C=C/c1csc(NC(=O)c2cccn2Cc2ccncc2)n1)c1ccccc1 (stereo not drawn) [Compound A251],,
0.25,0.477,18.1,7.21,0.102,1.33,O=C(Nc1nc(C2CCC(c3ccccc3)CC2)cs1)c1cccn1Cc1ccncc1 (stereo not drawn) [Compound A255],,
4.04,2.87,> 25,> 25,2.15,> 25,"CC(C)OC(C)(C)c1csc(NC(=O)c2cccn2Cc2c(F)cncc2F)n1 [Compound A256, 1-((3,5-difluoropyridin-4-yl)methyl)-N-(4-(2-isopropoxypropan-2-yl)thiazol-2-yl)-1H-pyrrole-2-carboxamide]",,
4.01,3.63,> 25,> 25,1.88,24.8,CC(C)(OCc1ccccn1)c1csc(NC(=O)c2cccn2Cc2ccncc2)n1 [Compound A257],,
2.02,> 25,> 25,> 25,2.25,> 25,O=C(Nc1nc(N2CCC(c3ccccc3)CC2)cs1)c1cccn1Cc1ccncc1 [Compound A261],,
0.958,1.04,> 25,21.5,0.381,5.22,"O=C(Nc1nc(C2(OCc3ccccc3)CC2)cs1)c1cccn1Cc1ccncc1 [Compound A263, N-(4-(1-(benzyloxy)cyclopropyl)thiazol-2-yl)-1-(pyridin-4-ylmethyl)-1H-pyrrole-2-carboxamide]",,
> 25,> 25,> 25,> 25,> 25,> 25,O=C(Nc1nc(N2CCCCC2)cs1)c1cccn1Cc1ccncc1 [Compound A264],,
9,> 25,> 25,> 25,6.25,> 25,O=C(Nc1nc(N2CCN(c3ccccc3)CC2)cs1)c1cccn1Cc1ccncc1 [Compound A266],,
0.129,0.291,> 25,7.29,0.052,0.821,O=C(Nc1nc(C2CC(c3ccccc3)C2)cs1)c1cccn1Cc1ccncc1 (stereo not drawn) [Compound A268],,
